Experimental data published in article PMC7763418 (Journal of the American Heart Association: Cardiovascular …, 2020).

Columns and labels:
[1] = system: healthy male participants; experiment: Heart rate, arterial line/ECG recording; type: in vivo, human; conditions: days B and C, after 15 min of esmolol 1.25 mg/kg bolus+[…] iv
[2] = system: healthy male participants; experiment: Relative stroke volume; type: in vivo, human; conditions: esmolol 1.25 mg/kg bolus+[…] iv
[3] = system: cardiac beta 1 receptors; conditions: esmolol dose used (1.25 mg/kg bolus+[…]); cited from earlier work

For COC(=O)CCc1ccc(OCC(O)CNC(C)C)cc1 (stereo not shown) [esmolol], the “Average heart rate at baseline (0 min)” value [1] was 58.2 bpm, the “Reduction of mean stroke volume from −15 minutes to baseline” value ([2]; day B) was 13.7% and the “Reduction of mean stroke volume from −15 minutes to baseline” value ([2]; day C, before glucagon) was 25.8%. For the same compound, the “Cardiac beta 1 receptors blocked” value [3] was greater than 85%.
